Assay results as given in patent US8114902B2, “2-aminobutanol compound and use thereof for medical purposes” (Mitsubishi Tanabe Pharma Corporation, priority 2006, dated 2012).

Legend:
[1] = Action on heart rate in rat telemetry; assay type: in vivo, male Sprague-Dawley (IGS) rats; settings: oral administration in 0.5% hydroxypropylmethylcellulose, up to the dose of 10 mg/kg body weight, heart rate measured from 24 hr before to 72 hr after administration
Method: Action on Heart Rate in Rat Telemetry
Male Sprague-Dawley (IGS) rats were anesthetized by intraperitoneal administration of Nembutal (manufactured by DAINIPPON PHARMACEUTICAL CO., LTD.), and a pressure sensor connected to a telemetric transmitter (TL11M2-C50-PTX, manufactured by Data Sciences International) was inserted into the abdominal artery, whereby the transmitter was subcutaneously set in the abdomen. The data of blood pressure and heart rate were recorded by an analysis software (Dataquest A.R.T., Data Sciences International) via a receiver (RPC-1, manufactured by Data Sciences International). After confirmation of the recovery of the circadian rhythm of the heart rate after elapse of 10 days to 2 weeks postoperation, the rats were subjected to the experiment. The compound of the present invention was suspended in 0.5% hydroxypropylmethylcellulose (manufactured by Shin-Etsu Chemical Co., Ltd.) and administered orally. The heart rate was measured from 24 hr before administration to 72 hr after administration.

[2] = system: mouse peripheral blood lymphocyte count; assay: Evaluation of mouse peripheral blood lymphocyte count-decreasing effect; assay type: in vivo, male BALB/cAnNCrj mice; settings: intraperitoneal administration in 20% cyclodextrin, blood collected 24 hr after administration, flow cytometer count
Method: Evaluation of Mouse Peripheral Blood Lymphocyte Count-Decreasing Effect
The compound of the present invention was dissolved or suspended in 20% cyclodextrin (manufactured by NIHON SHOKUHIN KAKO CO., LTD.), and intraperitoneally administered to 7- to 10-week-old male BALB/cAnNCrj mice (Charles River Laboratories Japan, Inc.) at a dose of 0.001-10 mg/kg body weight. At 24 hr after the administration of the compound of the present invention, the peripheral blood (about 0.3 ml) was collected using a tuberculin syringe (manufactured by TERUMO CORPORATION) treated with heparin sodium (manufactured by NovoNordisk) from the postcava of the mice under ether anesthesia. The blood (0.1 ml) was hemolyzed in an automatic hemolysis treatment apparatus (TQ-Prep, manufactured by Beckman Instruments•Coulter) and, using a Flow Cytometer (CYTOMICS FC 500, manufactured by Beckman Instruments•Coulter), the lymphocytes were counted by a gating method using the forward and side scattering of the laser beam as an index and Flow-Count™ Fluorospheres (manufactured by Beckman Instruments•Coulter), which are the standard particles in a known number, as the internal standard. Taking the lymphocyte count of the vehicle group as 100%, the dose necessary for decreasing the lymphocyte count thereof to 50% was calculated and taken as ED50 value (mg/kg body weight).

Structure (SMILES)	influence on heart rate in rats (telemetry) [1]	mouse peripheral blood lymphocyte count-decreasing effect, ED50 value (dose necessary for decreasing the lymphocyte count to 50% of vehicle group) [2]
Cc1ccc(Sc2ccc(-c3ccc(CCC(N)(CO)CO)cc3)c(F)c2)cc1 [Example 4, 2-amino-2-{2-[2′-fluoro-4′-(4-methylphenylthio)biphenyl-4-yl]ethyl}propane-1,3-diol]	did not influence the heart rate	0.05 mg/kg body weight
Cc1ccc(Sc2ccc(-c3ccc(CCC(N)(CO)CO)c(Cl)c3)c(F)c2)cc1 [Example 18, 2-amino-2-{2-[3-chloro-2′-fluoro-4′-(4-methylphenylthio)biphenyl-4-yl]ethyl}propane-1,3-diol]	–	0.04 mg/kg body weight
